# Measured values taken from the supplement of paper PMC10733146.
# Key:
# Assay in all cases: viability relative to DMSO control (fraction); higher = less drug effect (more viable cells)
# Settings in all cases: 48 h
# [1] = compound: O=C(/C=C\n1cnc(-c2cc(C(F)(F)F)cc(C(F)(F)F)c2)n1)NNc1cnccn1 [Selinexor]
# Outline: (§1)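 Viability was measured as CellTiter-Glo luminescence relative to the median of 16 inner DMSO wells. Primary mononuclear tumour cells, fresh or cryopreserved, were Ficoll-isolated from blood or bone marrow or taken from processed lymph node. They were seeded at 4 × 10^4 cells per well into 384-well plates holding pre-plated compounds at five concentrations, one well each, and kept in RPMI-1640 with penicillin/streptomycin, L-glutamine and human serum at 37 °C and 5% CO2 for 48 h.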
# [2] = compound: CCS(=O)(=O)N1CCC([C@@H](C)n2c(C)c(C(=O)NCc3c(OC)cc(C)[nH]c3=O)c3ccccc32)CC1 [CPI-169]
# Outline: as §1
# [3] = compound: COc1cc([C@@H]2c3cc4c(cc3[C@@H](O[C@@H]3O[C@@H]5CO[C@@H](C)O[C@H]5[C@H](O)[C@H]3O)[C@H]3COC(=O)[C@H]23)OCO4)cc(OC)c1O [Etoposide]
# Outline: as §1
# [4] = compound: CO[C@H]1C[C@@H]2CC[C@@H](C)[C@@](O)(O2)C(=O)C(=O)N2CCCC[C@H]2C(=O)O[C@H]([C@H](C)C[C@@H]2CC[C@@H](OCCO)[C@H](OC)C2)CC(=O)[C@H](C)/C=C(\C)[C@@H](O)[C@@H](OC)C(=O)[C@H](C)C[C@H](C)/C=C/C=C/C=C/1C [Everolimus]
# Outline: as §1
# [5] = compound: CO[C@@H]1[C@H](N(C)C(=O)c2ccccc2)C[C@H]2O[C@]1(C)n1c3ccccc3c3c4c(c5c6ccccc6n2c5c31)C(=O)NC4 [Midostaurin hydrate]
# Outline: as §1
# [6] = compound: Cn1c(CCCC(=O)O)nc2cc(N(CCCl)CCCl)ccc21 [Bendamustine]
# Outline: as §1
# [7] = compound: C[C@@H]1CCN(C(=O)CC#N)C[C@@H]1N(C)c1ncnc2[nH]ccc12 [Tofacitinib]
# Outline: as §1
# [8] = compound: CC(C)N(CCCNC(=O)Nc1ccc(C(C)(C)C)cc1)C[C@H]1O[C@@H](n2cc(Br)c3c(N)ncnc32)[C@H](O)[C@@H]1O [SGC 0946]
# Outline: as §1
# [9] = compound: CC[C@H](CO)Nc1nc(NCc2ccccc2)c2ncn(C(C)C)c2n1 [Roscovitine]
# Outline: as §1
# [10] = compound: c1cn2cc(-c3ccc4cn[nH]c4c3)nc(Nc3ccc(N4CCOCC4)cc3)c2n1 [Entospletinib]
# Outline: as §1
# [11] = compound: CCN(CCCOc1ccc2c(Nc3cc(CC(=O)Nc4cccc(F)c4)[nH]n3)ncnc2c1)CCOP(=O)(O)O [Barasertib]
# Outline: as §1
# [12] = compound: CC(=O)c1c(C)c2cnc(Nc3ccc(N4CCNCC4)cn3)nc2n(C2CCCC2)c1=O [Palbociclib]
# Outline: as §1
# [13] = compound: CCN(c1cc(-c2ccc(CN3CCOCC3)cc2)cc(C(=O)NCc2c(C)cc(C)[nH]c2=O)c1C)C1CCOCC1 [EPZ-6438]
# Outline: as §1
test system,measurement,setting,value
primary FL patient cells (S022),viability,[1]; 0.008 µM,0.987
same,viability,[1]; 0.04 µM,0.861
same,viability,[1]; 0.2 µM,0.779
same,viability,[1]; 1 µM,0.383
same,viability,[1]; 5 µM,0.333
same,viability,[2]; 0.024 µM,1.07
same,viability,[2]; 0.12 µM,0.933
same,viability,[2]; 0.6 µM,1.14
same,viability,[2]; 3 µM,0.97
same,viability,[2]; 15 µM,0.953
same,viability,[3]; 0.032 µM,0.967
same,viability,[3]; 0.16 µM,0.975
same,viability,[3]; 0.8 µM,0.921
same,viability,[3]; 4 µM,0.987
same,viability,[3]; 20 µM,0.783
same,viability,[4]; 0.0032 µM,0.943
same,viability,[4]; 0.016 µM,0.933
same,viability,[4]; 0.08 µM,0.911
same,viability,[4]; 0.4 µM,0.882
same,viability,[4]; 2 µM,0.966
same,viability,[5]; 0.024 µM,1.05
same,viability,[5]; 0.12 µM,1.01
same,viability,[5]; 0.6 µM,1.11
same,viability,[5]; 3 µM,1.03
same,viability,[5]; 15 µM,0.774
same,viability,[6]; 0.032 µM,1.13
same,viability,[6]; 0.16 µM,1.1
same,viability,[6]; 0.8 µM,1.19
same,viability,[6]; 4 µM,1.14
same,viability,[6]; 20 µM,0.888
same,viability,[7]; 0.024 µM,0.904
same,viability,[7]; 0.12 µM,0.859
same,viability,[7]; 0.6 µM,0.936
same,viability,[7]; 3 µM,0.914
same,viability,[7]; 15 µM,0.894
same,viability,[8]; 0.024 µM,0.902
same,viability,[8]; 0.12 µM,0.937
same,viability,[8]; 0.6 µM,0.808
same,viability,[8]; 3 µM,0.9
same,viability,[8]; 15 µM,0.484
same,viability,[9]; 0.032 µM,1.03
same,viability,[9]; 0.16 µM,1.03
same,viability,[9]; 0.8 µM,1.05
same,viability,[9]; 4 µM,0.992
same,viability,[9]; 20 µM,0.781
same,viability,[10]; 0.024 µM,1.01
same,viability,[10]; 0.12 µM,1.05
same,viability,[10]; 0.6 µM,1.07
same,viability,[10]; 3 µM,0.933
same,viability,[10]; 15 µM,0.964
same,viability,[11]; 0.0008 µM,0.844
same,viability,[11]; 0.004 µM,0.871
same,viability,[11]; 0.02 µM,0.904
same,viability,[11]; 0.1 µM,0.972
same,viability,[11]; 0.5 µM,0.935
same,viability,[12]; 0.024 µM,1.07
same,viability,[12]; 0.12 µM,0.973
same,viability,[12]; 0.6 µM,0.986
same,viability,[12]; 3 µM,0.865
same,viability,[12]; 15 µM,0.33
same,viability,[13]; 0.024 µM,1.08
same,viability,[13]; 0.12 µM,1.04
same,viability,[13]; 0.6 µM,0.978
same,viability,[13]; 3 µM,0.997
same,viability,[13]; 15 µM,0.892
primary MCL patient cells (S041),viability,[1]; 0.008 µM,0.887
same,viability,[1]; 0.04 µM,0.809
same,viability,[1]; 0.2 µM,0.672
same,viability,[1]; 1 µM,0.42
same,viability,[1]; 5 µM,0.478
same,viability,[2]; 0.024 µM,1.01
same,viability,[2]; 0.12 µM,1.02
same,viability,[2]; 0.6 µM,0.988
same,viability,[2]; 3 µM,1.05
same,viability,[2]; 15 µM,1.08
same,viability,[3]; 0.032 µM,1.04
same,viability,[3]; 0.16 µM,0.982
same,viability,[3]; 0.8 µM,0.968
same,viability,[3]; 4 µM,0.941
same,viability,[3]; 20 µM,0.733
same,viability,[4]; 0.0032 µM,0.912
same,viability,[4]; 0.016 µM,0.868
same,viability,[4]; 0.08 µM,0.873
same,viability,[4]; 0.4 µM,0.86
same,viability,[4]; 2 µM,0.882
same,viability,[5]; 0.024 µM,1.09
same,viability,[5]; 0.12 µM,1.06
same,viability,[5]; 0.6 µM,0.972
same,viability,[5]; 3 µM,0.802
same,viability,[5]; 15 µM,0.637
same,viability,[6]; 0.032 µM,0.996
same,viability,[6]; 0.16 µM,1.05
same,viability,[6]; 0.8 µM,0.988
same,viability,[6]; 4 µM,0.958
same,viability,[6]; 20 µM,0.788
same,viability,[7]; 0.024 µM,0.967
same,viability,[7]; 0.12 µM,0.967
same,viability,[7]; 0.6 µM,0.98
same,viability,[7]; 3 µM,1.05
same,viability,[7]; 15 µM,1.05
same,viability,[8]; 0.024 µM,0.938
same,viability,[8]; 0.12 µM,0.965
same,viability,[8]; 0.6 µM,0.897
same,viability,[8]; 3 µM,0.854
same,viability,[8]; 15 µM,0.605
same,viability,[9]; 0.032 µM,0.99
same,viability,[9]; 0.16 µM,0.965
same,viability,[9]; 0.8 µM,1.07
same,viability,[9]; 4 µM,0.995
same,viability,[9]; 20 µM,0.593
same,viability,[10]; 0.024 µM,0.999
same,viability,[10]; 0.12 µM,1.02
same,viability,[10]; 0.6 µM,0.964
same,viability,[10]; 3 µM,0.983
same,viability,[10]; 15 µM,1.12
same,viability,[11]; 0.0008 µM,0.907
same,viability,[11]; 0.004 µM,0.919
same,viability,[11]; 0.02 µM,0.947
same,viability,[11]; 0.1 µM,0.965
same,viability,[11]; 0.5 µM,1.01
same,viability,[12]; 0.024 µM,0.933
same,viability,[12]; 0.12 µM,0.948
same,viability,[12]; 0.6 µM,0.9
same,viability,[12]; 3 µM,0.738
same,viability,[12]; 15 µM,0.439
same,viability,[13]; 0.024 µM,1.25
same,viability,[13]; 0.12 µM,1.16
same,viability,[13]; 0.6 µM,1.04
same,viability,[13]; 3 µM,1.11
same,viability,[13]; 15 µM,1
